Patent publication US8575091B1, “Amylin analogues and pharmaceutical compositions thereof” (Novo Nordisk A/S, priority 2012, dated 2013)
Where two headings read alike, the source gives them in different places. Numbered stars: 1 amine (or outer) side, 2 acyl side, 3 side chain; on linkers, the order of the positions; unused ones are H or OH. Bridge positions count the residues as written; N and C are the ends. Side chains are listed from the residue outwards. Peptide text beside a SMILES is read from it. * marks the point of attachment. C20 diacid = O=C(O)CCCCCCCCCCCCCCCCCCC(=O)*; γGlu = O=C(O)[C@H](CCC(=O)[*:2])N[*:1]; AEEA = NCCOCCOCC(=O)O

Assays:
[1] = molecular target: T1, human amylin receptor (amylin 3(a) receptor: human calcitonin receptor + RAMP-3) (Homo sapiens, UniProt O60896+P30988); assay: Assay (II)a functional assay, human amylin receptor (CRE luciferase, BHK cells); assay type: cell-based; conditions: for EC50: read-out: hAmylin-R funct. EC50
T1 construct: expressed in transfected cells
T1 sequence (P30988 25-474): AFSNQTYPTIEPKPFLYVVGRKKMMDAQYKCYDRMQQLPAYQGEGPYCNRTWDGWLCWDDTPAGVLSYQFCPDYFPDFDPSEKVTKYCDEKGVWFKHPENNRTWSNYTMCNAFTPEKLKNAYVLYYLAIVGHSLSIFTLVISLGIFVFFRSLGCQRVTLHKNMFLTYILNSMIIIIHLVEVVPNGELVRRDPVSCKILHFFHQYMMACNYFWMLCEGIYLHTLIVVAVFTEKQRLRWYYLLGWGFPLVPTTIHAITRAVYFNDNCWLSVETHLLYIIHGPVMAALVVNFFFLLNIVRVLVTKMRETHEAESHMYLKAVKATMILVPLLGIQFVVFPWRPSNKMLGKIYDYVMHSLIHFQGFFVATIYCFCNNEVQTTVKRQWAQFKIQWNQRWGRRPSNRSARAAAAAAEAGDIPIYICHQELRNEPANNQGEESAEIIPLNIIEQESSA
T1 sequence (O60896 24-148 partner): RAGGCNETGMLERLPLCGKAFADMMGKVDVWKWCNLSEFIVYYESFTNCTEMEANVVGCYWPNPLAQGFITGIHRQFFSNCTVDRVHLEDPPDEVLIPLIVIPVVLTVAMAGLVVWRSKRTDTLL

[2] = molecular target: T2, human calcitonin receptor (Homo sapiens, UniProt P30988); assay: Assay (II)a functional assay, human calcitonin receptor (CRE luciferase, BHK cells);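 note: luminescence from a CRE-driven luciferase reporter, read by single photon counting after cells were exposed to test samples for 3 h at 37 °C under 5% CO2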; assay type: cell-based; conditions: read-out: hCTR funct. EC50
T2 construct: expressed in transfected cells
T2 sequence (P30988 25-474): T1 sequence (P30988 25-474)

[3] = molecular target: T3, human amylin receptor (Homo sapiens, UniProt O60896+P30988); assay: Assay (V) binding to the human amylin receptor (SPA, 125I-rat amylin); conditions: for IC50: human amylin receptor membranes, SPA, read-out: hAmylin-R bind IC50
T3 construct: expressed in transfected cells
T3 sequence (P30988 25-474): T1 sequence (P30988 25-474)
T3 sequence (O60896 24-148 partner): T1 sequence (O60896 24-148 partner)
In short: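 SPA competition binding on membranes from Amylin 3(a)/CRE-luc cells, 35 ng/μL membranes with 0.05 mg/well beads. Buffer 50 mM Hepes pH 7.4, 1 mM CaCl2, 5 mM MgCl2, 0.1% OA, 0.02% Tween20. IC50 from one-site competition fit as affinity measure.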

[4] = molecular target: T2, human calcitonin receptor; assay: Assay (VII) binding to the human calcitonin receptor (SPA, 125I-Calcitonin); conditions: read-out: hCTR bind IC50;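 note: cell membranes coupled to SPA beads, competitive displacement read by scintillation counting, IC50 derived from a one-site competition fit as a measure of receptor affinity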
[5] = functional assay, human amylin receptor
[6] = Table 6, human functional selectivity (hCTR EC50 / hAmylin-R EC50)
[7] = Table 6a, human functional selectivity (hCTR EC50 / hAmylin-R EC50), at least 5
[8] = Table 6j, hCTR funct. EC50 / hAmylin-R funct. EC50
[9] = Table 6k, hCTR funct. EC50 / hAmylin-R funct. EC50

CC[C@H](C)[C@H](NC(=O)[C@H](C)NC(=O)CNC(=O)[C@H](Cc1ccccc1)NC(=O)[C@H](CC(N)=O)NC(=O)[C@@H]1CCCN1C(=O)[C@H](CO)NC(=O)[C@H](CO)NC(=O)[C@H](Cc1c[nH]cn1)NC(=O)[C@H](CCCNC(=N)N)NC(=O)[C@H](CC(C)C)NC(=O)[C@H](Cc1ccccc1)NC(=O)[C@H](Cc1c[nH]cn1)NC(=O)[C@H](C)NC(=O)[C@H](CC(C)C)NC(=O)[C@H](CCCNC(=N)N)NC(=O)[C@H](CCC(N)=O)NC(=O)[C@@H](NC(=O)[C@H](C)NC(=O)[C@@H]1CSSC[C@H](NC(=O)[C@@H](N)CCCCNC(=O)COCCOCCNC(=O)CC[C@H](NC(=O)CCCCCCCCCCCCCCCCCCC(=O)O)C(=O)O)C(=O)N[C@@H](CC(N)=O)C(=O)N[C@@H]([C@@H](C)O)C(=O)N[C@@H](C)C(=O)N[C@@H]([C@@H](C)O)C(=O)N1)[C@@H](C)O)C(=O)N1CCC[C@H]1C(=O)N[C@@H](CO)C(=O)N[C@@H](CO)C(=O)N[C@H](C(=O)N[C@@H](CC(N)=O)C(=O)N[C@H](C(=O)NCC(=O)N1CCC[C@H]1C(=O)N[C@@H](CC(N)=O)C(=O)N[C@H](C(=O)N[C@@H](Cc1ccc(O)cc1)C(N)=O)[C@@H](C)O)C(C)C)[C@@H](C)O [Example 68] (H-K([AEEA-γGlu-C20 diacid])CNTATCATQRLAHFLRHSSPNFGAIPSSTNVGPNTY-NH2; disulfide 2-7) was tested, and the EC50 [1, 5] was 0.054 nM, the EC50 [2] was 0.932 nM and the IC50 [3] was 0.088 nM. It also gave an IC50 [4] of 5.66 nM.

CC[C@H](C)[C@H](NC(=O)[C@H](C)NC(=O)CNC(=O)[C@H](Cc1ccccc1)NC(=O)[C@H](CC(N)=O)NC(=O)[C@@H]1CCCN1C(=O)[C@H](CO)NC(=O)[C@H](CO)NC(=O)[C@H](Cc1c[nH]cn1)NC(=O)[C@H](CCCNC(=N)N)NC(=O)[C@H](CC(C)C)NC(=O)[C@H](Cc1ccccc1)NC(=O)CNC(=O)[C@H](C)NC(=O)[C@H](CC(C)C)NC(=O)[C@H](CCCNC(=N)N)NC(=O)[C@H](CCC(N)=O)NC(=O)[C@@H](NC(=O)[C@H](C)NC(=O)[C@@H]1CSSC[C@H](NC(=O)[C@@H](N)CCCCNC(=O)COCCOCCNC(=O)CC[C@H](NC(=O)CCCCCCCCCCCCCCCCCCC(=O)O)C(=O)O)C(=O)N[C@@H](CC(N)=O)C(=O)N[C@@H]([C@@H](C)O)C(=O)N[C@@H](C)C(=O)N[C@@H]([C@@H](C)O)C(=O)N1)[C@@H](C)O)C(=O)N1CCC[C@H]1C(=O)N[C@@H](CO)C(=O)N[C@@H](CO)C(=O)N[C@H](C(=O)N1CCC[C@H]1C(=O)N[C@H](C(=O)NCC(=O)N[C@@H](CO)C(=O)N[C@@H](CC(N)=O)C(=O)N[C@H](C(=O)N[C@@H](Cc1ccc(O)cc1)C(N)=O)[C@@H](C)O)C(C)C)[C@@H](C)O [Example 71] (H-K([AEEA-γGlu-C20 diacid])CNTATCATQRLAGFLRHSSPNFGAIPSSTPVGSNTY-NH2; disulfide 2-7) was tested, and the “Ratio hCT/hAmylin funct.” value [1, 6] was 9.4, the “Ratio hCT/hAmylin funct.” value [1, 7] was 9.4 and the “Ratio hCT/hAmylin funct.” value [1, 8] was 9.4. The EC50 ([1]; Table 6j, human amylin receptor functional) was 0.056 nM, the “Ratio hCT/hAmylin funct.” value [1, 9] was 9.4 and the EC50 [2] was 0.527 nM. The “Ratio hCT/hAmylin binding” value ([3]; Table 7b, human calcitonin receptor binding IC50 divided by human amylin receptor binding IC50) was 32.0, the “Ratio hCT/hAmylin binding” value ([3]; Table 7c, human calcitonin receptor binding IC50 divided by human amylin receptor binding IC50) was 32.0 and the IC50 [3] was 0.048 nM. The “Ratio hCT/hAmylin binding” value ([3]; human binding ratio, included for comparison) was 32.0 and the IC50 [4] was 1.54 nM.

Compound CC[C@H](C)[C@H](NC(=O)[C@H](C)NC(=O)CNC(=O)[C@H](Cc1ccccc1)NC(=O)[C@H](CC(N)=O)NC(=O)[C@@H]1CCCN1C(=O)[C@H](CO)NC(=O)[C@H](CO)NC(=O)[C@H](Cc1c[nH]cn1)NC(=O)[C@H](CCCNC(=N)N)NC(=O)[C@H](CC(C)C)NC(=O)[C@H](Cc1ccccc1)NC(=O)[C@H](CCCNC(=N)N)NC(=O)[C@H](C)NC(=O)[C@H](CC(C)C)NC(=O)[C@H](CCCNC(=N)N)NC(=O)[C@H](CCC(N)=O)NC(=O)[C@@H](NC(=O)[C@H](C)NC(=O)[C@@H]1CSSC[C@H](NC(=O)[C@@H](N)CCCCNC(=O)CC[C@H](NC(=O)CCCCCCCCCCCCCCCCCCC(=O)O)C(=O)O)C(=O)N[C@@H](CC(N)=O)C(=O)N[C@@H]([C@@H](C)O)C(=O)N[C@@H](C)C(=O)N[C@@H]([C@@H](C)O)C(=O)N1)[C@@H](C)O)C(=O)N1CCC[C@H]1C(=O)N[C@@H](CO)C(=O)N[C@@H](CO)C(=O)N[C@H](C(=O)N[C@@H](CC(N)=O)C(=O)N[C@H](C(=O)NCC(=O)N[C@@H](CO)C(=O)N[C@@H](CC(N)=O)C(=O)N[C@H](C(=O)N[C@@H](Cc1ccc(O)cc1)C(N)=O)[C@@H](C)O)C(C)C)[C@@H](C)O [Example 83] has an EC50 [1, 5] of 0.405 nM, an EC50 [2] of 16.8 nM and an IC50 [3] of 0.939 nM. The IC50 [4] was 137 nM.

CC[C@H](C)[C@H](NC(=O)[C@H](C)NC(=O)CNC(=O)[C@H](Cc1ccccc1)NC(=O)[C@H](CC(N)=O)NC(=O)[C@@H]1CCCN1C(=O)[C@H](CO)NC(=O)[C@H](CO)NC(=O)[C@H](Cc1c[nH]cn1)NC(=O)[C@H](CCCNC(=N)N)NC(=O)[C@H](CC(C)C)NC(=O)[C@H](Cc1ccccc1)NC(=O)[C@H](CCC(=O)O)NC(=O)[C@H](C)NC(=O)[C@H](CC(C)C)NC(=O)[C@H](CCCNC(=N)N)NC(=O)[C@H](CCC(N)=O)NC(=O)[C@@H](NC(=O)[C@H](C)NC(=O)[C@@H]1CSSC[C@H](NC(=O)[C@@H](N)CCCCNC(=O)CC[C@H](NC(=O)CC[C@H](NC(=O)CCCCCCCCCCCCCCCCCCC(=O)O)C(=O)O)C(=O)O)C(=O)N[C@@H](CC(N)=O)C(=O)N[C@@H]([C@@H](C)O)C(=O)N[C@@H](C)C(=O)N[C@@H]([C@@H](C)O)C(=O)N1)[C@@H](C)O)C(=O)N1CCC[C@H]1C(=O)N[C@@H](CO)C(=O)N[C@@H](CO)C(=O)N[C@H](C(=O)N[C@@H](CC(N)=O)C(=O)N[C@H](C(=O)NCC(=O)N[C@@H](CCCNC(=N)N)C(=O)N[C@@H](CC(N)=O)C(=O)N[C@H](C(=O)N[C@@H](Cc1ccc(O)cc1)C(N)=O)[C@@H](C)O)C(C)C)[C@@H](C)O [Example 88] (H-K([γGlu-γGlu-C20 diacid])CNTATCATQRLAEFLRHSSPNFGAIPSSTNVGRNTY-NH2; disulfide 2-7) was tested, and the “Ratio hCT/hAmylin funct.” value [1, 6] was 8.5, the “Ratio hCT/hAmylin funct.” value [1, 7] was 8.5 and the “Ratio hCT/hAmylin funct.” value ([1]; Table 6i, hCTR funct. EC50 / hAmylin-R funct. EC50) was 8.5. For the same compound, the EC50 ([1]; Table 6i, human amylin receptor functional) was 0.773 nM, the “Ratio hCT/hAmylin funct.” value [1, 8] was 8.5 and the “Ratio hCT/hAmylin funct.” value [1, 9] was 8.5. For the same compound, the EC50 [2] was 6.55 nM, the IC50 [3] was 0.75 nM and the IC50 [4] was 34.9 nM.

In the case of CC[C@H](C)[C@H](NC(=O)[C@H](C)NC(=O)CNC(=O)[C@H](Cc1ccccc1)NC(=O)[C@H](CC(N)=O)NC(=O)[C@@H]1CCCN1C(=O)[C@H](CO)NC(=O)[C@H](CO)NC(=O)[C@H](Cc1c[nH]cn1)NC(=O)[C@H](CCCNC(=N)N)NC(=O)[C@H](CC(C)C)NC(=O)[C@H](Cc1ccccc1)NC(=O)[C@H](CC(N)=O)NC(=O)[C@H](C)NC(=O)[C@H](CC(C)C)NC(=O)[C@H](CCCNC(=N)N)NC(=O)[C@H](CCC(N)=O)NC(=O)[C@@H](NC(=O)[C@H](C)NC(=O)[C@@H]1CSSC[C@H](NC(=O)[C@@H](N)CCCCNC(=O)COCCOCCNC(=O)CCCCCCCCCCCCCCCCCCC(=O)O)C(=O)N[C@@H](CC(N)=O)C(=O)N[C@@H]([C@@H](C)O)C(=O)N[C@@H](C)C(=O)N[C@@H]([C@@H](C)O)C(=O)N1)[C@@H](C)O)C(=O)N1CCC[C@H]1C(=O)N[C@@H](CO)C(=O)N[C@@H](CO)C(=O)N[C@H](C(=O)N[C@@H](CC(N)=O)C(=O)N[C@H](C(=O)NCC(=O)N[C@@H](Cc1c[nH]cn1)C(=O)N[C@@H](CC(N)=O)C(=O)N[C@H](C(=O)N[C@@H](Cc1ccc(O)cc1)C(N)=O)[C@@H](C)O)C(C)C)[C@@H](C)O [Example 91], the EC50 [1, 5] is reported as 0.04 nM, the EC50 [2] is reported as 1.48 nM and the IC50 [3] is reported as 0.119 nM. It also gave an IC50 [4] of 12 nM.
